Results from EPA's ToxRefDB 2.

How the values were obtained:
rat [1] = settings: Sub-acute repeat dose toxicity, sprague dawley, Oral, Gavage/Intubation, dose end: 28 day, group: systemic
rat [2] = settings: Multigenerational reproductive toxicity study, sprague dawley, Oral, Gavage/Intubation, dose end: 1 generation
dog [3] = settings: Subchronic oral toxicity in nonrodent, beagle, Feed, dose end: 13 week
mouse [4] = settings: Combined chronic toxicity/carcinogenicity, b6c3f1, Oral, Feed, dose end: 2 year
dog [5] = settings: Chronic toxicity, beagle, Oral, Feed, dose end: 12 month
rat [6] = settings: Combined chronic toxicity/carcinogenicity, sprague dawley, Oral, Feed, dose end: 28 month
rat [7] = settings: Multigenerational reproductive toxicity study, sprague dawley, Oral, Feed, dose end: 2 generation
rat [8] = settings: Subchronic oral toxicity in rodents, sprague dawley, Feed, dose end: 3 month
mouse [9] = settings: Subchronic oral toxicity in rodents, cd1, Feed, dose end: 3 month, group: systemic
rat [10] = settings: Prenatal developmental toxicity study, wistar, Oral, Gavage/Intubation, dose end: 15 GD
dog [11] = settings: Subchronic oral toxicity in nonrodent, beagle, Feed, dose end: 90 day
dog [12] = settings: Subchronic oral toxicity in nonrodent, beagle, Feed, dose end: 6 month, group: systemic
dog [13] = settings: Chronic toxicity, beagle, Oral, Feed, dose end: 12 month, group: systemic
mouse [14] = settings: Subchronic oral toxicity in rodents, b6c3f1, Feed, dose end: 13 week, group: systemic, systemic / organ weight / liver / nos + systemic / pathology microscopic / liver / cellular alteration
mouse [15] = settings: Carcinogenicity, b6c3f1, Oral, Feed, dose end: 2 year, group: systemic
rat [16] = settings: Subchronic oral toxicity in rodents, Feed, dose end: 90 day, group: systemic
rat [17] = settings: Combined chronic toxicity/carcinogenicity; fischer; Oral; Feed; dose end: 2 year; group: systemic; systemic / pathology microscopic / liver / hypertrophy + systemic / in life observation / clinical signs / hematuria + systemic / pathology …
rat [18] = settings: Subchronic oral toxicity in rodents, fischer, Feed, dose end: 13 week, group: systemic, systemic / organ weight / liver / nos + systemic / pathology microscopic / liver / [other] + systemic / organ weight / liver / relative to …
rat [19] = settings: Combined chronic toxicity/carcinogenicity, fischer, Oral, Feed, dose end: 2 year, group: systemic
[20] = systemic / organ weight / liver / relative to body weight + systemic / clinical chemistry / bilirubin / total bilirubin + systemic / in life…
[21] = group: offspring, systemic / in life observation / body weight / offspring (pup) weight
[22] = group: parental, systemic / organ weight / heart / relative to body weight + systemic / organ weight / kidney / relative to body weight + systemic / organ …
[23] = group: reproductive, reproductive / offspring survival early / birth index / live birth index
[24] = group: cholinesterase, cholinesterase / cholinesterase / cholinesterase / plasma cholinesterase (che) + cholinesterase / cholinesterase / cholinesterase / …
[25] = group: systemic, systemic / in life observation / body weight / body weight gain + systemic / in life observation / clinical signs / emaciation + systemic / …
[26] = group: cholinesterase, cholinesterase / cholinesterase / cholinesterase / brain cholinesterase (che) + cholinesterase / cholinesterase / cholinesterase / …
[27] = group: systemic, systemic / clinical chemistry / cholesterol / cholesterol
[28] = group: systemic, systemic / clinical chemistry / cholesterol / cholesterol + systemic / in life observation / body weight / body weight + systemic / in life …
[29] = group: cholinesterase, cholinesterase / cholinesterase / cholinesterase / erythrocyte cholinesterase (che) + cholinesterase / cholinesterase / cholinesterase / …
[30] = group: systemic, systemic / organ weight / liver / absolute
[31] = group: cholinesterase, cholinesterase / cholinesterase / cholinesterase / erythrocyte cholinesterase (che)
[32] = group: systemic, systemic / hematology / erythrocyte (rbc) count differential / erythrocyte (rbc) + systemic / hematology / hematocrit (hct) / hematocrit (…
[33] = group: offspring, developmental / offspring survival late / viability index / viability index
[34] = group: parental, systemic / in life observation / body weight / body weight gain
[35] = group: systemic, systemic / clinical chemistry / albumin-globulin ratio / albumin-globulin ratio
[36] = group: systemic, systemic / hematology / hemoglobin (hgb) / hemoglobin (hgb) + systemic / pathology microscopic / stomach / acanthosis + systemic / pathology…
[37] = systemic / in life observation / body weight / body weight + systemic / organ weight / brain / relative to body weight + systemic / organ …
[38] = group: developmental, systemic / in life observation / body weight / fetal weight + developmental / developmental malformation / bone / delayed ossification + …
[39] = group: maternal, reproductive / reproductive performance / postimplantation loss / postimplantation loss + reproductive / reproductive performance / …
[40] = group: systemic, systemic / in life observation / clinical signs / pulse/pressure
[41] = systemic / organ weight / liver / absolute + systemic / organ weight / liver / relative to body weight
[42] = systemic / organ weight / liver / absolute + systemic / organ weight / liver / relative to body weight + systemic / clinical chemistry / …
[43] = systemic / organ weight / liver / relative to body weight + systemic / in life observation / body weight / body weight gain + systemic / …
[44] = systemic / organ weight / kidney / nos + systemic / organ weight / kidney / relative to body weight
[45] = systemic / organ weight / liver / nos + systemic / pathology microscopic / liver / [other]
[46] = systemic / organ weight / liver / nos + systemic / pathology microscopic / liver / [other] + systemic / organ weight / kidney / nos
[47] = systemic / in life observation / body weight / body weight + systemic / in life observation / mortality / mortality

Structure (SMILES): O=[N+]([O-])c1ccc(O)c([N+](=O)[O-])c1 [2,4-Dinitrophenol]
- LEL (rat [1]; systemic / clinical chemistry / bilirubin / total bilirubin): 10 mg/kg/day
- NEL (rat [1]; systemic / clinical chemistry / bilirubin / total bilirubin + systemic / in life observation / clinical signs / [other] + systemic / in life…): 3 mg/kg/day
- LOAEL (rat [1]; [20]): > 80 mg/kg/day
- NOAEL (rat [1]; [20]): ≥ 80 mg/kg/day
- LEL (rat [2]; [21]): 30 mg/kg/day
- LOAEL (rat [2]; [21]): > 30 mg/kg/day
- NEL (rat [2]; [21]): 10 mg/kg/day
- NOAEL (rat [2]; [21]): ≥ 30 mg/kg/day
- LEL (rat [2]; [22]): 30 mg/kg/day
- LOAEL (rat [2]; [22]): > 30 mg/kg/day
- NEL (rat [2]; [22]): 10 mg/kg/day
- NOAEL (rat [2]; [22]): ≥ 30 mg/kg/day
- LEL (rat [2]; [23]): 30 mg/kg/day
- LOAEL (rat [2]; [23]): > 30 mg/kg/day
- NEL (rat [2]; [23]): 10 mg/kg/day
- NOAEL (rat [2]; [23]): ≥ 30 mg/kg/day

Structure (SMILES): COP(=S)(OC)Oc1ccc([N+](=O)[O-])cc1 [Methyl parathion]
- LEL (dog [3]; [24]): 3 mg/kg/day
- LOAEL (dog [3]; [24]): 3 mg/kg/day
- NEL (dog [3]; [24]): 0.3 mg/kg/day
- NOAEL (dog [3]; [24]): 0.3 mg/kg/day
- LOAEL (dog [3]; group: systemic, systemic / in life observation / body weight / body weight gain): 3 mg/kg/day
- LEL (dog [3]; [25]): 3 mg/kg/day
- NOAEL (dog [3]; [25]): 0.3 mg/kg/day
- NEL (dog [3]; group: systemic, systemic / in life observation / clinical signs / emaciation + systemic / in life observation / clinical signs / dehydration + systemic / in…): 0.3 mg/kg/day
- LEL (mouse [4]; [26]): 1.6 mg/kg/day
- LOAEL (mouse [4]; [26]): 1.6 mg/kg/day
- NEL (mouse [4]; [26]): 0.2 mg/kg/day
- NOAEL (mouse [4]; [26]): 0.2 mg/kg/day
- LEL (mouse [4]; [27]): 2.1 mg/kg/day
- LOAEL (mouse [4]; [27]): 2.1 mg/kg/day
- NEL (mouse [4]; [28]): 0.3 mg/kg/day
- NOAEL (mouse [4]; [28]): 0.3 mg/kg/day
- LEL (dog [5]; [29]): 0.03 mg/kg/day
- LOAEL (dog [5]; [29]): 0.03 mg/kg/day
- NEL (dog [5]; [29]): < 0.03 mg/kg/day
- NOAEL (dog [5]; [29]): < 0.03 mg/kg/day
- LEL (dog [5]; [30]): 0.3 mg/kg/day
- LOAEL (dog [5]; [30]): > 0.3 mg/kg/day
- NEL (dog [5]; [30]): 0.1 mg/kg/day
- NOAEL (dog [5]; [30]): ≥ 0.3 mg/kg/day
- LOAEL (rat [6]; [26]): > 2.21 mg/kg/day
- NEL (rat [6]; [26]): 0.02 mg/kg/day
- NOAEL (rat [6]; [26]): ≥ 2.21 mg/kg/day
- LEL (rat [6]; [31]): 0.21 mg/kg/day
- LEL (rat [6]; [32]): 0.21 mg/kg/day
- LOAEL (rat [6]; [32]): 0.21 mg/kg/day
- NEL (rat [6]; [32]): 0.02 mg/kg/day
- NOAEL (rat [6]; [32]): 0.02 mg/kg/day
- LEL (rat [7]; [33]): 2 mg/kg/day
- LOAEL (rat [7]; [33]): 2 mg/kg/day
- NEL (rat [7]; [33]): 0.38 mg/kg/day
- NOAEL (rat [7]; [33]): 0.38 mg/kg/day
- LOAEL (rat [7]; [34]): 2.3 mg/kg/day
- NEL (rat [7]; [34]): 0.44 mg/kg/day
- NOAEL (rat [7]; [34]): 0.44 mg/kg/day
- LEL (rat [7]; group: parental, systemic / in life observation / body weight / body weight gain + systemic / in life observation / body weight / body weight): 2.3 mg/kg/day
- LEL (rat [8]; [31]): 1.24 mg/kg/day
- LOAEL (rat [8]; [31]): 1.24 mg/kg/day
- NEL (rat [8]; [29]): 0.12 mg/kg/day
- NOAEL (rat [8]; [29]): 0.12 mg/kg/day
- LEL (rat [8]; [35]): 0.16 mg/kg/day
- NEL (rat [8]; [35]): < 0.16 mg/kg/day
- LOAEL (rat [8]; [36]): 1.24 mg/kg/day
- NOAEL (rat [8]; [36]): 0.12 mg/kg/day
- LOAEL (mouse [9]; systemic / in life observation / body weight / body weight): 13.5 mg/kg/day
- LEL (mouse [9]; [37]): 13.5 mg/kg/day
- NEL (mouse [9]; [37]): 6.5 mg/kg/day
- NOAEL (mouse [9]; [37]): 6.5 mg/kg/day
- LEL (rat [10]; [26]): 3 mg/kg/day
- LOAEL (rat [10]; [26]): > 3 mg/kg/day
- NOAEL (rat [10]; [26]): ≥ 3 mg/kg/day
- LOAEL (rat [10]; group: developmental, systemic / in life observation / body weight / fetal weight): 3 mg/kg/day
- LEL (rat [10]; [38]): 3 mg/kg/day
- NEL (rat [10]; [38]): 1 mg/kg/day
- NOAEL (rat [10]; [38]): 1 mg/kg/day
- LEL (rat [10]; [39]): 3 mg/kg/day
- LOAEL (rat [10]; [39]): 3 mg/kg/day
- NEL (rat [10]; [39]): 1 mg/kg/day
- NOAEL (rat [10]; [39]): 1 mg/kg/day
- LEL (dog [11]; [29]): 1 mg/kg/day
- LOAEL (dog [11]; [29]): 1 mg/kg/day
- NEL (dog [11]; [29]): 0.3 mg/kg/day
- NOAEL (dog [11]; [29]): 0.3 mg/kg/day
- LEL (dog [11]; [40]): 3 mg/kg/day
- LOAEL (dog [11]; [40]): 3 mg/kg/day
- NEL (dog [11]; [40]): 1 mg/kg/day
- NOAEL (dog [11]; [40]): 1 mg/kg/day

Structure (SMILES): Nc1c(Cl)c(Cl)nc(C(=O)O)c1Cl [Picloram]
- LEL (dog [12]; [41]): 35 mg/kg/day
- LOAEL (dog [12]; [41]): 35 mg/kg/day
- NEL (dog [12]; [42]): 7 mg/kg/day
- NOAEL (dog [12]; [42]): 7 mg/kg/day
- NEL (dog [13]; systemic / organ weight / liver / relative to body weight + systemic / in life observation / body weight / body weight gain): 35 mg/kg/day
- LOAEL (dog [13]; [43]): > 175 mg/kg/day
- NOAEL (dog [13]; [43]): ≥ 175 mg/kg/day
- LEL (dog [13]; systemic / organ weight / liver / relative to body weight + systemic / organ weight / liver / absolute): 175 mg/kg/day
- LEL (mouse [14]): 1000 mg/kg/day
- LOAEL (mouse [14]): 1000 mg/kg/day
- NEL (mouse [14]): < 1000 mg/kg/day
- NOAEL (mouse [14]): < 1000 mg/kg/day
- LEL (mouse [15]; systemic / organ weight / kidney / nos): 1000 mg/kg/day
- LOAEL (mouse [15]; [44]): > 1000 mg/kg/day
- NEL (mouse [15]; [44]): 500 mg/kg/day
- NOAEL (mouse [15]; [44]): ≥ 1000 mg/kg/day
- LEL (rat [16]; [45]): 150 mg/kg/day
- LOAEL (rat [16]; [45]): 150 mg/kg/day
- NEL (rat [16]; [46]): 50 mg/kg/day
- NOAEL (rat [16]; [46]): 50 mg/kg/day
- LEL (rat [17]): 250 mg/kg/day
- LOAEL (rat [17]): 250 mg/kg/day
- NEL (rat [17]): < 250 mg/kg/day
- NOAEL (rat [17]): < 250 mg/kg/day
- LEL (rat [18]): 150 mg/kg/day
- LOAEL (rat [18]): 150 mg/kg/day
- NEL (rat [18]): 50 mg/kg/day
- NOAEL (rat [18]): 50 mg/kg/day
- LEL (rat [19]; [47]): 20 mg/kg/day
- NEL (rat [19]; [47]): < 20 mg/kg/day
- NOAEL (rat [19]; systemic / in life observation / body weight / body weight + systemic / pathology microscopic / liver / hypertrophy + systemic / clinical …): 20 mg/kg/day
- LOAEL (rat [19]; systemic / pathology microscopic / liver / hypertrophy): 60 mg/kg/day
